Reference: ChEMBL document CHEMBL4354830, “Discovery of Benzo[cd]indol-2(1H)-ones and Pyrrolo[4,3,2-de]quinolin-2(1H)-ones as Bromodomain and Extra-Terminal Domain (BET) Inhibitors with Selectivity for the First Bromodomain with Potential High Efficiency against Acute Gouty Arthritis” (J Med Chem, 2019)

Legend:
[1] = target: T1, Bromodomain-containing protein 4 (Homo sapiens, UniProt O60885); experiment: Displacement of tetra-acetylated histone H4 peptide (1-21) from recombinant human N-terminal His-tagged BRD4 BD1 (44 to 170 residues) expressed in Escherichia coli incubated for 30 mins followed by further incubation with tetra-acetylated histone H4 peptide (1-21) for 30 mins by Alphascreen assay
[2] = target: T1, Bromodomain-containing protein 4; experiment: Displacement of tetra-acetylated histone H4 peptide (1-21) from recombinant human N-terminal His-tagged BRD4 BD2 (349 to 460 residues) expressed in Escherichia coli incubated for 30 mins followed by further incubation with tetra-acetylated histone H4 peptide (1-21) for 30 mins by Alphascreen assay
[3] = target: T1, Bromodomain-containing protein 4; experiment: Binding affinity to recombinant human N-terminal His-tagged BRD4 BD1 (44 to 170 residues) expressed in Escherichia coli assessed as change in melting temperature at 10 uM by SYPRO Orange based differential scanning fluorimetry
RAW264.7 = experiment: Inhibition of LPS-induced NO overproduction in mouse RAW264.7 cells at 1 uM incubated for 2 hrs followed by LPS stimulation and measured after 22 hrs by Griess reagent based assay relative to control; type: functional; conditions: for inhibition at 1 µM: Mus musculus, RAW264.7

Compound | IC50 [1] [nM] | IC50 [2] [nM] | ΔTm [3] [°C] | inhibition at 1 µM (RAW264.7) [%] | inhibition (INH) (RAW264.7) [%]
COc1ccccc1S(=O)(=O)Nc1ccc2c3c(cc(N4CCN(C(=O)OC(C)(C)C)CC4)nc13)C(=O)N2C | 334 | 2170 |  |  | 
CCCn1cc(-c2cc3c4c(ccc(NS(=O)(=O)c5ccc(Cl)cc5OC)c4c2)N(C)C3=O)cn1 | 107 | 320 |  |  | 
COc1ccccc1S(=O)(=O)Nc1ccc2c3c(cccc13)C(=O)N2C | 49.5 | 2480 | 8.72 | 51.4 | 
COc1ccccc1S(=O)(=O)Nc1ccc2c3c(cc(N4CCC(CO)CC4)nc13)C(=O)N2C | 169 | 29600 |  |  | 
COc1ccccc1S(=O)(=O)Nc1ccc2c3c(cc(N[C@H](C)c4ccccn4)nc13)C(=O)N2C | 2230 |  |  |  | 
COc1ccccc1S(=O)(=O)Nc1ccc2c3c(cc(Cl)nc13)C(=O)N2C | 656 |  |  |  | 
CN1C(=O)c2cccc3c(NS(=O)(=O)c4ccc(Cl)cc4)ccc1c23 | 167 | 2720 | 6.5 | 15.1 | 
CN1C(=O)c2cccc3c(NS(=O)(=O)c4ccccc4OC(F)(F)F)ccc1c23 | 3890 |  | 4.73 |  | 
Cc1ccccc1S(=O)(=O)Nc1ccc2c3c(cccc13)C(=O)N2C | 709 |  | 5.1 |  | 
Cc1sc2c(c1C)C(c1ccc(Cl)cc1)=N[C@@H](CC(=O)OC(C)(C)C)c1nnc(C)n1-2 |  |  |  |  | 47.56
COc1ccccc1S(=O)(=O)Nc1ccc2c3c(cc(NCCN4CCCCC4)nc13)C(=O)N2C | 328 | 7070 |  |  | 
COc1ccccc1S(=O)(=O)Nc1ccc2c3c(cc(-c4cnn(Cc5ccccc5)c4)cc13)C(=O)N2C | 205 |  |  |  | 
COc1cc(Cl)ccc1S(=O)(=O)Nc1ccc2c3c(cc(-c4cnn(C5CC5)c4)cc13)C(=O)N2C | 37.5 | 435 |  |  | 
COc1ccccc1S(=O)(=O)Nc1ccc2c3c(cc(NCCN4CCN(C)CC4)nc13)C(=O)N2C | 223 | 1520 |  | 39.6 | 
CN1C(=O)c2cccc3c(NS(=O)(=O)c4cccc5cccnc45)ccc1c23 | 329 | 260 | 4.13 |  | 
CCN1C(=O)c2cccc3c(NS(=O)(=O)c4ccc(Cl)cc4)ccc1c23 | 237 | 2720 | 6.36 |  | 
CCOC(=O)CC1CCN(c2cc3c4c(ccc(NS(=O)(=O)c5ccccc5OC)c4n2)N(C)C3=O)CC1 | 709 |  |  |  | 
CN1C(=O)c2cc(-c3cnn(C)c3)cc3c(NS(=O)(=O)c4ccc(Cl)cc4)ccc1c23 | 348 |  |  |  | 
CN1C(=O)c2cc(-c3cnn(C4CC4)c3)cc3c(NS(=O)(=O)c4ccc(Cl)cc4)ccc1c23 | 666 |  |  |  | 
COc1cc(OC)c2c(=O)[nH]c(-c3cc(C)c(OCCO)c(C)c3)nc2c1 [APABETALONE] |  |  |  | 9.17 | 
COc1ccccc1S(=O)(=O)Nc1ccc2c3c(ccnc13)C(=O)N2C | 205 | 4600 | 7.64 | 94.3 | 
COc1ccccc1S(=O)(=O)Nc1ccc2c3c(cc(NC4CC4)nc13)C(=O)N2C | 271 | 660 |  |  | 
COc1ccccc1S(=O)(=O)Nc1ccc2c3c(cc(-c4ccco4)nc13)C(=O)N2C | 35.1 | 982 |  | 64.9 | 
COc1ccccc1S(=O)(=O)Nc1ccc2c3c(cc(NC(C)(C)C)nc13)C(=O)N2C | 573 | 2080 |  |  | 
CN1C(=O)c2cccc3c(NS(=O)(=O)c4cccs4)ccc1c23 | 3720 |  | 4.02 |  | 
CN1C(=O)c2cccc3c(NS(=O)(=O)c4cccc(Cl)c4F)ccc1c23 | 1700 |  | 4.83 |  | 
Cc1ccc(S(=O)(=O)Nc2ccc3c4c(ccnc24)C(=O)N3C)cc1 | 1570 | 6620 | 5.12 |  | 

Compound | IC50 [1] [nM] | IC50 [2] [nM] | ΔTm [3] [°C] | inhibition at 1 µM (RAW264.7) [%] | inhibition (INH) (RAW264.7) [%]
COc1cc(Cl)ccc1S(=O)(=O)Nc1ccc2c3c(cccc13)C(=O)N2C | 299 | 3470 | 7.1 |  | 
CN1C(=O)c2ccnc3c(NS(=O)(=O)c4ccc(Cl)cc4)ccc1c23 | 3470 | 20500 | 6.53 |  | 
Cc1ccccc1NS(=O)(=O)c1ccc2c3c(cccc13)C(=O)N2C | 15500 |  | 2.23 |  | 
CN1C(=O)c2cc(N3CCOCC3)nc3c(NS(=O)(=O)c4ccc(Cl)cc4)ccc1c23 | 217 |  |  |  | 
CN1CCN(c2cc3c4c(ccc(NS(=O)(=O)c5ccc(Cl)cc5)c4n2)N(C)C3=O)CC1 | 391 |  |  |  | 
COc1ccccc1S(=O)(=O)Nc1ccc2c3c(cc(-c4ccoc4)cc13)C(=O)N2C | 164 |  |  |  | 
CN1C(=O)c2cccc3c(NS(=O)(=O)c4cccnc4)ccc1c23 | 2440 | 13700 | 2.3 |  | 
Cc1cc(/N=N/c2ccc(S(=O)(=O)Nc3ccc(C#N)cc3)cc2)cc(C)c1O | 328 | 7070 |  | 43.4 | 
CN1C(=O)c2cccc3c(NS(=O)(=O)c4ccc(F)cc4Cl)ccc1c23 | 91.3 | 3830 | 6.23 | 98.1 | 
O=C1Nc2ccc(NS(=O)(=O)c3ccc(Cl)cc3)c3cccc1c23 | 769 | 15500 | 3.73 |  | 
Cc1ccc(S(=O)(=O)Nc2ccc3c4c(cccc24)C(=O)N3C)cc1 | 545 | 2280 | 7.36 |  | 
CCCn1cc(-c2cc3c4c(ccc(NS(=O)(=O)c5ccccc5OC)c4c2)N(C)C3=O)cn1 | 43.7 | 266 |  | 106 | 
CN1C(=O)c2cccc3c(NS(=O)(=O)c4ccccc4Cl)ccc1c23 | 1530 | 6050 | 5.37 |  | 
Cc1cc(F)ccc1S(=O)(=O)Nc1ccc2c3c(cccc13)C(=O)N2C | 810 |  | 4.32 |  | 
CN1C(=O)c2cc(Cl)nc3c(NS(=O)(=O)c4ccc(Cl)cc4)ccc1c23 | 2600 |  |  |  | 
COc1ccccc1S(=O)(=O)Nc1ccc2c3c(cc(N4CCN(C)CC4)nc13)C(=O)N2C | 100 | 2120 |  | 92.5 | 
CN1C(=O)c2cccc3c(NS(=O)(=O)c4c(F)cccc4F)ccc1c23 | 9070 |  | 3.73 |  | 
COc1ccccc1S(=O)(=O)Nc1ccc2c3c(cc(-n4ccnc4)nc13)C(=O)N2C | 889 | 4110 |  |  | 
COc1ccccc1S(=O)(=O)Nc1ccc2c3c(cc(NCC4CCOCC4)nc13)C(=O)N2C | 503 |  |  |  | 
COc1ccccc1S(=O)(=O)Nc1ccc2c3c(cc(-c4cnn(C5CC5)c4)cc13)C(=O)N2C | 14.4 | 238 |  | 83.7 | 
COc1ccccc1S(=O)(=O)Nc1ccc2c3c(cc(N4CCOCC4)nc13)C(=O)N2C | 95.2 | 808 |  | 100 | 
COc1ccccc1S(=O)(=O)Nc1ccc2c3c(cc(-c4cnn(C)c4)cc13)C(=O)N2C | 17.4 | 435 |  | 102 | 
COc1ccccc1S(=O)(=O)Nc1ccc2c3c(cc(-c4cnn(C)c4)nc13)C(=O)N2C | 12.6 | 289 |  |  | 
COc1ccccc1S(=O)(=O)Nc1ccc2c3c(cc(-c4ccoc4)nc13)C(=O)N2C | 37 | 459 |  | 66.3 | 
COc1ccccc1S(=O)(=O)Nc1ccc2c3c(cc(-c4cnn(C5CC5)c4)nc13)C(=O)N2C | 16.6 | 107 |  |  | 
COc1ccccc1S(=O)(=O)Nc1ccc2c3c(cc(NCC4CCN(C)CC4)nc13)C(=O)N2C | 113 | 1280 |  | 47.2 | 
